According to ChEMBL document CHEMBL1153018, “Synthesis of pochoxime prodrugs as potent HSP90 inhibitors” (Bioorg Med Chem Lett, 2009):
Calls of active or inactive are those of the source. No cut-off for these calls is given here.

Key:
Mus musculus [1] = assay: Toxicity in ICR-SCID mouse heart assessed as […] level at 100 mg/kg administered 3 times per week for 4 weeks measured after 24 hrs of last dose relative to untreated control; assay type: organism-based; design: dose 100 mg/kg; settings: in vivo
Mus musculus [2] = assay: Toxicity in ICR-SCID mouse heart assessed as […] level at 150 mg/kg administered 3 times per week for 4 weeks measured after 24 hrs of last dose relative to untreated control; assay type: organism-based; design: dose 150 mg/kg; settings: in vivo
Mus musculus [3] = assay: Toxicity in ICR-SCID mouse heart assessed as cholesterol level at 150 mg/kg administered 3 times per week for 4 weeks measured after 24 hrs of last dose relative to untreated control; assay type: organism-based; design: dose 150 mg/kg; settings: in vivo
[4] = Half life in ICR-SCID mouse; assay type: ADME, organism-based; settings: in vivo
[5] = Drug level in tumor of human BT474 cells xenografted in ICR-SCID mouse at 100 mg/kg, ip administered after 3 weeks tumor implantation measured after 6 hrs; assay type: ADME, organism-based, Neoplasm, BT-474; design: dose 100 mg/kg, route intraperitoneal; settings: tumor (human BT474 xenograft), read-out: Drug uptake
[6] = Drug level in tumor of human BT474 cells xenografted in ICR-SCID mouse at 100 mg/kg, ip administered after 3 weeks tumor implantation measured after 12 hrs; assay type: ADME, organism-based, Neoplasm, BT-474; design: dose 100 mg/kg, route intraperitoneal; settings: tumor (human BT474 xenograft), read-out: Drug uptake
[7] = Drug level in tumor of human BT474 cells xenografted in ICR-SCID mouse at 150 mg/kg, ip administered after 3 weeks tumor implantation measured after 6 hrs; assay type: ADME, organism-based, Neoplasm, BT-474; design: dose 150 mg/kg, route intraperitoneal; settings: tumor (human BT474 xenograft), read-out: Drug uptake
[8] = Drug level in tumor of human BT474 cells xenografted in ICR-SCID mouse at 150 mg/kg, ip administered after 3 weeks tumor implantation measured after 48 hrs; assay type: ADME, organism-based, Neoplasm, BT-474; design: dose 150 mg/kg, route intraperitoneal; settings: tumor (human BT474 xenograft), read-out: Drug uptake
Mus musculus [9] = assay: Hepatotoxicity in ICR-SCID mouse liver assessed as hematopoietic cell differentiation administered 3 times per week for 4 weeks measured after 24 hrs of last dose; assay type: toxicity, organism-based; settings: in vivo
BT-474 [10] = assay: Growth inhibition of human BT474 cells assessed as ATP level after 4 days; assay type: functional; settings: BT-474, 96 h
MV4-11 = assay: Growth inhibition of human MV4-11 cells assessed as ATP level after 4 days; assay type: functional; settings: MV4-11, 96 h
[11] = Growth inhibition of human A172 cells assessed as ATP level after 4 days; assay type: functional; settings: A 172, 96 h
HCC827 = assay: Induction of mutant EGFR degradation in human tarceva and iressa-resistant HCC827 cells at 20 to 500 nM by Western blotting; assay type: functional, cell-based
NCI-H1975 [12] = assay: Induction of mutant c-Raf degradation in human tarceva and iressa-resistant NCI-H1975 cells at 20 to 500 nM by Western blotting; assay type: functional, cell-based
NCI-H1975 [13] = assay: Induction of mutant Cyclin D degradation in human tarceva and iressa-resistant NCI-H1975 cells at 20 to 500 nM by Western blotting; assay type: functional, cell-based
NCI-H1975 [14] = assay: Induction of mutant Cdk4 degradation in human tarceva and iressa-resistant NCI-H1975 cells at 20 to 500 nM by Western blotting; assay type: functional, cell-based
[15] = Drug level in tumor of human BT474 cells xenografted in ICR-SCID mouse at 200 mg/kg, ip administered after 3 weeks tumor implantation measured after 6 hrs; assay type: ADME, organism-based, Neoplasm, BT-474; design: dose 200 mg/kg, route intraperitoneal; settings: tumor (human BT474 xenograft), read-out: Drug uptake
[16] = Drug level in tumor of human BT474 cells xenografted in ICR-SCID mouse at 200 mg/kg, ip administered after 3 weeks tumor implantation measured after 12 hrs; assay type: ADME, organism-based, Neoplasm, BT-474; design: dose 200 mg/kg, route intraperitoneal; settings: tumor (human BT474 xenograft), read-out: Drug uptake
[17] = Drug level in tumor of human BT474 cells xenografted in ICR-SCID mouse at 200 mg/kg, ip administered after 3 weeks tumor implantation measured after 24 hrs; assay type: ADME, organism-based, Neoplasm, BT-474; design: dose 200 mg/kg, route intraperitoneal; settings: tumor (human BT474 xenograft), read-out: Drug uptake
BT-474 [18] = assay: Induction of p-HER2 degradation in human BT474 cells xenografted in ICR-SCID mouse at 100 mg/kg, ip administered after 3 weeks tumor implantation after 6 to 48 hrs by Western blotting; assay type: functional, organism-based; design: dose 100 mg/kg
BT-474 [19] = assay: Induction of Cyclin D degradation in human BT474 cells xenografted in ICR-SCID mouse at 100 mg/kg, ip administered after 3 weeks tumor implantation after 6 to 48 hrs by Western blotting; assay type: functional, organism-based; design: dose 100 mg/kg
BT-474 [20] = assay: Induction of Cdk4 degradation in human BT474 cells xenografted in ICR-SCID mouse at 100 mg/kg, ip administered after 3 weeks tumor implantation after 6 to 48 hrs by Western blotting; assay type: functional, organism-based; design: dose 100 mg/kg
Mus musculus [21] = assay: Hepatotoxicity in ICR-SCID mouse liver assessed as bilirubin level at 100 mg/kg administered 3 times per week for 4 weeks measured after 24 hrs of last dose relative to untreated control; assay type: toxicity, organism-based; design: dose 100 mg/kg; settings: in vivo
Mus musculus [22] = assay: Toxicity in ICR-SCID mouse kidney assessed as BUN level at 100 mg/kg administered 3 times per week for 4 weeks measured after 24 hrs of last dose relative to untreated control; assay type: organism-based; design: dose 100 mg/kg; settings: in vivo
Mus musculus [23] = assay: Toxicity in ICR-SCID mouse kidney assessed as creatinine level at 150 mg/kg administered 3 times per week for 4 weeks measured after 24 hrs of last dose relative to untreated control; assay type: organism-based; design: dose 150 mg/kg; settings: in vivo

## O=C1OCC/C=C/CC/C=C/C(=N/OCC(=O)N2CCCCC2)Cc2c(Cl)c(O)cc(O)c21 [POCHOXIME A]
Mus musculus [1]
  Activity: 15.2 U/L
Mus musculus [2]
  Activity: 31 U/L
Mus musculus [3]
  Activity: 119 mg/dL
[4]
  half-life: 2.5 h
[5]
  concentration at 6 h: 5490 ng/g
[6]
  concentration at 12 h: 5250 ng/g
[7]
  concentration at 6 h: 6180 ng/g
[8]
  concentration at 48 h: 4580 ng/g
Mus musculus [9]
  Activity: Not Active
BT-474 [10]
  GI50: 7 nM
MV4-11
  GI50: 3 nM
[11]
  GI50: 42 nM
HCC827
  Activity: Active
NCI-H1975 [12]
  Activity: Active
NCI-H1975 [13]
  Activity: Active
NCI-H1975 [14]
  Activity: Active
[15]
  concentration at 6 h: 6520 ng/g
[16]
  concentration at 12 h: 8920 ng/g
[17]
  concentration at 24 h: 10200 ng/g
BT-474 [18]
  Activity: Active
BT-474 [19]
  Activity: Active
BT-474 [20]
  Activity: Active
Mus musculus [21]
  Activity: 0.2 mg/dL
Mus musculus [22]
  Activity: 20 mg/dL
Mus musculus [23]
  Activity: 0.2 mg/dL
